Test systems include ACHN renal; COLO 205 colon; HCC-2998 colon; HOP-62 NSCLC; MDA-MB-435; OVCAR-3 ovarian; SF-295 CNS; UACC-62 melanoma; UO-31 renal; MALME-3M melanoma.
What all share (experiment): inhibition of tumour cell growth, NCI panel, 48 h

SMILES strings stand for the structures.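 Exposure lasted 48 hours, with cells grown in 96-well plates and compounds tested at five concentrations. Here, GI50 denotes the concentration required for 50% inhibition of growth. Definition used: TGI = concentration required for complete inhibition of growth.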

The values below come from PubChem BioAssay (NCI).

In the case of `O=C(Cc1csc2nc(-c3ccc(Br)cc3)cn12)N/N=C/c1ccccc1O`, the GI50 in the assay with ACHN renal was 1.57 µM; in the assay on COLO 205 colon, 5.08 µM; with HCC-2998 colon, 3.48 µM; in the assay with HOP-62 NSCLC it was 3.88 µM; with MDA-MB-435, 3.33 µM; with OVCAR-3 ovarian, 3.22 µM. Also, the figures for the GI50 in the assay on SF-295 CNS, in the assay with UACC-62 melanoma and in the assay with UO-31 renal were 2.73 µM, 2.09 µM and 7.16 µM, respectively. Moreover, the TGI in the assay with ACHN renal is 6.3 µM; with COLO 205 colon it was 23.1 µM; with HCC-2998 colon, 12.7 µM; in the assay on HOP-62 NSCLC, 14.9 µM; in the assay with MDA-MB-435 it was 13.6 µM; with OVCAR-3 ovarian, 15.1 µM. The results for the TGI in the assay on SF-295 CNS, in the assay on UACC-62 melanoma and in the assay with UO-31 renal were 9.34 µM, 7.28 µM and > 100 µM, respectively.
Regarding `CN(C)CN(C)c1nc(N(C)C)nc(N(C)C)n1`, the TGI in the assay with ACHN renal, in the assay with COLO 205 colon, in the assay with HCC-2998 colon, in the assay on HOP-62 NSCLC, with MALME-3M melanoma and with OVCAR-3 ovarian was > 100 µM in each case. Also, the TGI in the assay with SF-295 CNS, with UACC-62 melanoma and with UO-31 renal was > 100 µM each time.
As to `Clc1ccc(/C=C/c2csnn2)cc1`, the TGI with ACHN renal, in the assay on COLO 205 colon, in the assay with HCC-2998 colon, in the assay with HOP-62 NSCLC, in the assay with MALME-3M melanoma and in the assay on OVCAR-3 ovarian was > 100 µM in each case. In addition, the TGI in the assay with SF-295 CNS, in the assay on UACC-62 melanoma and with UO-31 renal was > 100 µM each time.
With `O=C(CC/C(CC(=O)c1ccc(Cl)cc1)=N\O)Nc1cccc(Cl)c1`, the TGI in the assay on ACHN renal, in the assay with COLO 205 colon, in the assay with HCC-2998 colon, with HOP-62 NSCLC, in the assay on MALME-3M melanoma and in the assay on OVCAR-3 ovarian was > 100 µM in each case. For the same molecule, the TGI in the assay with SF-295 CNS, in the assay on UACC-62 melanoma and in the assay with UO-31 renal was > 100 µM each time.
In the case of `OCCN1CCCN(CCCN2c3ccccc3Sc3ccc(C(F)(F)F)cc32)CC1`, the GI50 was 3.56 µM in the assay on ACHN renal; 1.94 µM with COLO 205 colon; 1.81 µM in the assay with HCC-2998 colon; 2.25 µM with HOP-62 NSCLC; 2.02 µM with MALME-3M melanoma; 1.67 µM in the assay with MDA-MB-435. Further, the GI50 was 3.84 µM in the assay on OVCAR-3 ovarian, 1.76 µM in the assay on SF-295 CNS and 2.3 µM in the assay with UO-31 renal. The TGI in the assay with ACHN renal came out at 13.4 µM; in the assay on COLO 205 colon, 3.68 µM; in the assay with HCC-2998 colon, 3.33 µM; in the assay on HOP-62 NSCLC, 5.05 µM; in the assay on MALME-3M melanoma, 3.82 µM; in the assay on MDA-MB-435, 3.33 µM. Further, the TGI was 13.9 µM in the assay with OVCAR-3 ovarian, 3.74 µM in the assay with SF-295 CNS and 10.6 µM in the assay on UO-31 renal.
Take `O=C(O)c1cc2ccc(Cl)cc2c(O)c1C1=CCCCC1`: the TGI in the assay with ACHN renal, in the assay on COLO 205 colon, with HCC-2998 colon, in the assay on HOP-62 NSCLC, in the assay with MALME-3M melanoma and in the assay with OVCAR-3 ovarian was > 100 µM in each case. Moreover, the results for the TGI in the assay with SF-295 CNS, in the assay on UACC-62 melanoma and in the assay on UO-31 renal were > 100 µM, 77.5 µM and > 100 µM, respectively.
Regarding `Cc1c(C(=O)/C=C/c2ccc3c(c2)OCO3)[n+](=O)c2ccccc2n1[O-]`, the TGI in the assay with ACHN renal is > 100 µM; in the assay on COLO 205 colon it was 78.7 µM; in the assay on HCC-2998 colon, 57.5 µM; with HOP-62 NSCLC, > 100 µM; in the assay with MALME-3M melanoma, > 100 µM; in the assay on OVCAR-3 ovarian, 83.3 µM. The TGI in the assay on SF-295 CNS was determined as 95.7 µM; in the assay with UACC-62 melanoma, 75.2 µM; with UO-31 renal, 97.4 µM.
For `N#CC(C#N)=C/C=C/c1ccccc1[N+](=O)[O-]`, the TGI in the assay with ACHN renal, in the assay on COLO 205 colon, in the assay with HCC-2998 colon, in the assay on HOP-62 NSCLC, with MALME-3M melanoma and in the assay on OVCAR-3 ovarian was > 10 µM in each case. Besides, the TGI was > 10 µM in the assay with SF-295 CNS, 9.39 µM with UACC-62 melanoma and > 10 µM in the assay with UO-31 renal.
On to `Cc1cn([C@H]2CN(O)C[C@@H](CO)O2)c(=O)[nH]c1=O`, for which the TGI in the assay with ACHN renal, with COLO 205 colon, with HCC-2998 colon, in the assay with HOP-62 NSCLC, with MDA-MB-435 and in the assay with SF-295 CNS was > 100 µM in each case. Moreover, the TGI in the assay on UACC-62 melanoma and with UO-31 renal was > 100 µM throughout.
In the case of `COc1ccc(C2NC(c3ccc(OC)cc3)C(C)C(=O)C2C)cc1` (stereo not given), the TGI in the assay with ACHN renal, with COLO 205 colon, with HCC-2998 colon, in the assay on HOP-62 NSCLC, with MALME-3M melanoma and with OVCAR-3 ovarian was > 100 µM in each case. Also, the TGI in the assay on SF-295 CNS, with UACC-62 melanoma and with UO-31 renal was > 100 µM in each case.
For the molecule `CC[C@]1(O)C[C@@H]2CN(CCc3c([nH]c4ccccc34)[C@@](C(=O)OC)(c3cc4c(cc3OC)N(C)[C@H]3[C@@](O)(C(=O)OC)[C@H](OC(=O)CCCBr)[C@]5(CC)C=CCN6CC[C@]43[C@@H]65)C2)C1`, the GI50 in the assay on ACHN renal is 0.108 µM; in the assay with HCC-2998 colon, 0.0132 µM; with HOP-62 NSCLC, 0.0386 µM; in the assay on MDA-MB-435 it was < 0.01 µM; with OVCAR-3 ovarian, < 0.01 µM; with UACC-62 melanoma, < 0.01 µM. In addition, the GI50 in the assay on UO-31 renal is 0.196 µM. Moreover, the TGI in the assay with ACHN renal is > 100 µM; in the assay on HCC-2998 colon it was 1.31 µM; with HOP-62 NSCLC it was > 100 µM; in the assay on MDA-MB-435, < 0.01 µM; in the assay with OVCAR-3 ovarian it was < 0.0126 µM; in the assay with UACC-62 melanoma it was > 100 µM. In the assay with UO-31 renal, this molecule returned a TGI of 6.55 µM.
`O=C(Nc1c(Cl)cc([N+](=O)[O-])cc1Cl)C(=O)C(C(=O)c1ccncc1)C1OC(=O)c2ccccc21` (stereo not given): the TGI in the assay with ACHN renal, in the assay with COLO 205 colon, with HCC-2998 colon, in the assay on HOP-62 NSCLC, in the assay on MALME-3M melanoma and in the assay on OVCAR-3 ovarian was > 100 µM in each case. For the same molecule, the TGI in the assay on SF-295 CNS, in the assay with UACC-62 melanoma and in the assay on UO-31 renal was > 100 µM in each case.
